The test system of one data set is NZBW F1 mice. The conditions noted are these: mouse, in vivo.
The subject of a further data set is DNA in plasmid form. Description: Plasmid DNA binding and LMWH displacement, agarose gel. As to conditions: 60° C. with agitation. The procedure: Using the biotinylated form of the polymer we have established a protocol to displace the DAMPs that are bound to the polymer using low-molecular weight heparin (LMWH). This method was validated by electrophoretic mobility shift assay (EMSA) and TLR stimulation.
(§1) DNA in plasmid form was bound to PAMAM-G3 via co-incubation at room temperature. […] LMWH displacement was executed at 60° C. with agitation of the DNA-polymer complex.

In the next data set the test system is TLR. Put plainly: TLR reporter cell assays with DNA-polymer complex and LMWH. The class given is cell-based. How it is done: as §1
For data set [1], the system named is NA-sensing TLRs (TLR3, 7, 8 and 9). Put plainly: Inhibition of nucleic acid based TLR agonists by NASs. As to conditions: in vitro and in vivo.

As to “[NH2(CH2)2NH2]:(G=3); dendri PAMAM(NH2)32 [PAMAM-G3]”, the “maximum tolerated dose (MTD)” value in the data set with NZBW F1 mice lay in the range of 100 to 200 mg/kg.
In the case of low-molecular weight heparin [LMWH], the “displacement of DNA from DNA-polymer complex” value in the data set on DNA in plasmid form is given as “Displacement of the DNA was also verified”. For the same substance, in the data set on TLR, the “TLR activation after displacement of DNA from polymer” value is reported as “elevated TLR activation” and the “TLR activation, alone” value is “no activation alone”.
Consider protamine sulfate, for which, in data set [1], the “activities of nucleic acid based TLR agonists (CpG oligos, Poly I:C, ssRNA40/LyoVec)” value is “counteract the activities of multiple nucleic acid based TLR agonists in vitro and in vivo”.
